What was measured:
[1] = system: barnyardgrass; test: Test A pre-/postemergence herbicide test; format: in vivo, Echinochloa crus-galli
Summary of the method: (§1)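 Greenhouse injury scoring (0–100, complete control = 100) at approximately ten days follows simultaneous pre- and postemergence application. Soil received a directed spray after seeding; seedlings of 2–10 cm at the one- to two-leaf stage were sprayed to runoff.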

[2] = system: giant foxtail; test: Test A pre-/postemergence herbicide test; format: in vivo, Setaria faberi
Summary of the method: as §1

[3] = system: redroot pigweed; test: Test A pre-/postemergence herbicide test; format: in vivo, Amaranthus retroflexus
Summary of the method: as §1

[4] = system: bermudagrass; test: Test C pre-/postemergence herbicide test; format: in vivo, Cynodon dactylon; settings: for Plant response rating (0 = no effect, 100 = complete control), Bermudagrass / Plant response rating, Bermudagrass: preemergence; for Bermudagrass plant response rating: Preemergence
Summary of the method: (§2)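 Pre/post spray; non-phytotoxic solvent + surfactant. Post-timing 1–4 leaves, 2–18 cm. Read-out: visual % control vs untreated, day 12–14, greenhouse.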

[5] = system: cocklebur; test: Test C pre-/postemergence herbicide test; format: in vivo, Xanthium strumarium; settings: for Plant response rating (0 = no effect, 100 = complete control), Cocklebur / Plant response rating, Cocklebur: preemergence; for Cocklebur plant response rating: Preemergence, scale 0 to 100, 0 no effect, 100 complete control
Summary of the method: as §2

[6] = system: woolly cupgrass; test: Test C pre-/postemergence herbicide test; format: in vivo, Eriochloa villosa; settings: for Plant response rating (0 = no effect, 100 = complete control), Cupgrass, Woolly / Plant response rating, Cupgrass, Woolly: preemergence; for Cupgrass, Woolly plant response rating: Preemergence, scale 0 to 100, 0 no effect, 100 complete control
Summary of the method: as §2

[7] = system: goosegrass; test: Test C pre-/postemergence herbicide test; format: in vivo, Eleusine indica; settings: for Plant response rating (0 = no effect, 100 = complete control), Goosegrass / Plant response rating, Goosegrass: preemergence; for Goosegrass plant response rating: Preemergence, scale 0 to 100, 0 no effect, 100 complete control
Summary of the method: as §2

[8] = system: kochia; test: Test C pre-/postemergence herbicide test; format: in vivo, Kochia scoparia; settings: for Plant response rating (0 = no effect, 100 = complete control), Kochia / Plant response rating, Kochia: preemergence; for Kochia plant response rating: Preemergence, scale 0 to 100, 0 no effect, 100 complete control
Summary of the method: as §2

[9] = system: lambsquarters; test: Test C pre-/postemergence herbicide test; format: in vivo, Chenopodium album; settings: for Plant response rating (0 = no effect, 100 = complete control), Lambsquarters / Plant response rating, Lambsquarters: preemergence; for Lambsquarters plant response rating: Preemergence, scale 0 to 100, 0 no effect, 100 complete control
Summary of the method: as §2

[10] = system: morningglory; test: Test C pre-/postemergence herbicide test; format: in vivo, Ipomoea coccinea; set-up: key to Plant response rating, Morningglory: 0 = no effect, 100 = complete control; settings: for Plant response rating (0 = no effect, 100 = complete control), Morningglory / Plant response rating, Morningglory: preemergence; for Morningglory plant response rating: Preemergence, scale 0 to 100, 0 no effect, 100 complete control
Summary of the method: as §2

[11] = Postemergence, 500 g ai/ha, 0 to 100 scale, 0 no effect, 100 complete control
[12] = Postemergence, 2000 g ai/ha, 0 to 100 scale, 0 no effect, 100 complete control
[13] = Preemergence, 500 g ai/ha, visual rating, 0 to 100 scale (0 no effect, 100 complete control)
[14] = Preemergence, 2000 g ai/ha, visual rating, 0 to 100 scale (0 no effect, 100 complete control)
[15] = preemergence, 500 g ai/ha, visual injury, 0 to 100 scale (0 no effect, 100 complete control)
[16] = 125 g ai/ha, scale 0 (no effect) to 100 (complete control), visual, 12 to 14 days
[17] = 250 g ai/ha, scale 0 to 100 (0 no effect, 100 complete control), visual, 12 to 14 days
[18] = 500 g ai/ha, scale 0 to 100, 0 no effect, 100 complete control
[19] = 62 g ai/ha, scale 0 to 100, 0 no effect, 100 complete control
[20] = 500 g ai/ha, scale 0 to 100 (0 no effect, 100 complete control), visual, 12 to 14 days

CCN(CC)C(=O)c1cccc(NC(=O)c2cc(C(C)(C)C)nn2CC)n1 [Compound 145]
90: Pigweed plant response rating [3, 11] | Bermudagrass plant response rating [4, 18]
70: Plant response rating, Goosegrass [7, 16]
0: Plant response rating (0 = no effect, 100 = complete control), Cocklebur ([5]; 62 g ai/ha) | Plant response rating, Cocklebur [5, 16] | Plant response rating, Cocklebur [5, 17] | Cocklebur plant response rating ([5]; 500 g ai/ha) | Plant response rating (0 = no effect, 100 = complete control), Cupgrass, Woolly ([6]; 62 g ai/ha) | Plant response rating, Cupgrass, Woolly [6, 16] | Plant response rating, Cupgrass, Woolly [6, 17] | Plant response rating (0 = no effect, 100 = complete control), Morningglory ([10]; 62 g ai/ha) | Plant response rating, Morningglory [10, 16]
80: Plant response rating, Bermudagrass [4, 17] | Goosegrass plant response rating ([7]; 500 g ai/ha) | Kochia plant response rating ([8]; 500 g ai/ha)
95: Barnyardgrass plant response rating [1, 13] | Pigweed plant response rating [3, 15]
60: Plant response rating, Foxtail, Giant [2, 12] | Plant response rating, Bermudagrass [4, 16] | Plant response rating, Kochia [8, 16] | Plant response rating, Lambsquarters [9, 16]
30: Morningglory plant response rating ([10]; 500 g ai/ha)
85: Foxtail, Giant plant response rating [2, 13]
20: Plant response rating (0 = no effect, 100 = complete control), Bermudagrass ([4]; 62 g ai/ha) | Plant response rating (0 = no effect, 100 = complete control), Kochia ([8]; 62 g ai/ha) | Plant response rating (0 = no effect, 100 = complete control), Lambsquarters ([9]; 62 g ai/ha)
100: Plant response rating, Barnyardgrass [1, 12] | Barnyardgrass plant response rating [1, 14] | Foxtail, Giant plant response rating [2, 14] | Plant response rating, Pigweed [3, 12] | Pigweed plant response rating [3, 14] | Lambsquarters plant response rating ([9]; 500 g ai/ha)
50: Plant response rating (0 = no effect, 100 = complete control), Goosegrass ([7]; 62 g ai/ha)
40: Barnyardgrass plant response rating [1, 11] | Foxtail, Giant plant response rating [2, 11] | Cupgrass, Woolly plant response rating ([6]; 500 g ai/ha)

CCNC(=O)c1cc(C)nc(NC(=O)c2cc(C(C)(C)C)nn2CC)c1 [Compound 149]
0: Plant response rating, Cocklebur ([5]; 62 g ai/ha, scale 0 to 100) | Plant response rating, Cocklebur [5, 16] | Plant response rating, Cocklebur [5, 17] | Cocklebur plant response rating ([5]; 500 g ai/ha) | Plant response rating, Cupgrass, Woolly ([6]; 62 g ai/ha, scale 0 to 100) | Plant response rating, Kochia ([8]; 62 g ai/ha, scale 0 to 100) | Plant response rating, Morningglory ([10]; 62 g ai/ha, scale 0 to 100)
45: Barnyardgrass plant response rating [1, 11]
95: Pigweed plant response rating [3, 14] | Bermudagrass plant response rating [4, 18] | Plant response rating, Lambsquarters [9, 16] | Lambsquarters plant response rating ([9]; 500 g ai/ha)
30: Plant response rating, Bermudagrass [4, 19]
75: Plant response rating, Lambsquarters ([9]; 62 g ai/ha, scale 0 to 100)
70: Barnyardgrass plant response rating [1, 13] | Foxtail, Giant plant response rating [2, 13] | Cupgrass, Woolly plant response rating ([6]; 500 g ai/ha) | Plant response rating, Goosegrass [7, 16]
10: Plant response rating, Goosegrass ([7]; 62 g ai/ha, scale 0 to 100) | Plant response rating, Kochia [8, 16]
5: Plant response rating, Cupgrass, Woolly [6, 16] | Plant response rating, Morningglory [10, 16]
100: Foxtail, Giant plant response rating [2, 14]
60: Morningglory plant response rating ([10]; 500 g ai/ha)
65: Plant response rating, Barnyardgrass [1, 12] | Plant response rating, Foxtail, Giant [2, 12] | Pigweed plant response rating [3, 11]
90: Barnyardgrass plant response rating [1, 14] | Plant response rating, Pigweed [3, 12] | Pigweed plant response rating [3, 15] | Plant response rating, Bermudagrass [4, 16] | Plant response rating, Bermudagrass [4, 17] | Goosegrass plant response rating ([7]; 500 g ai/ha) | Kochia plant response rating ([8]; 500 g ai/ha)
20: Plant response rating, Cupgrass, Woolly [6, 17]
40: Foxtail, Giant plant response rating [2, 11]

C=CCNC(=O)c1cccc(NC(=O)c2sc(C(C)(C)C)nc2C)c1 [Compound 202]
30: Foxtail, Giant plant response rating [2, 11]
0: Plant response rating, Cocklebur ([5]; 62 g ai/ha, scale 0 to 100) | Plant response rating, Cocklebur [5, 16] | Plant response rating, Cupgrass, Woolly ([6]; 62 g ai/ha, scale 0 to 100) | Plant response rating, Morningglory ([10]; 62 g ai/ha, scale 0 to 100)
40: Plant response rating, Lambsquarters ([9]; 62 g ai/ha, scale 0 to 100)
60: Cupgrass, Woolly plant response rating ([6]; 500 g ai/ha) | Plant response rating, Kochia ([8]; 62 g ai/ha, scale 0 to 100)
85: Plant response rating, Bermudagrass [4, 16] | Plant response rating, Goosegrass [7, 16] | Plant response rating, Kochia [8, 16] | Plant response rating, Kochia ([8]; 250 g ai/ha, scale 0-100) | Morningglory plant response rating ([10]; 500 g ai/ha)
50: Plant response rating, Foxtail, Giant [2, 12] | Pigweed plant response rating [3, 11]
90: Plant response rating, Pigweed [3, 12] | Plant response rating, Goosegrass ([7]; 250 g ai/ha, scale 0-100) | Plant response rating, Lambsquarters [9, 16]
45: Barnyardgrass plant response rating [1, 11] | Barnyardgrass plant response rating [1, 15]
80: Plant response rating, Barnyardgrass [1, 12] | Barnyardgrass plant response rating [1, 14] | Foxtail, Giant plant response rating [2, 14] | Plant response rating, Morningglory ([10]; 250 g ai/ha, scale 0-100)
100: Pigweed plant response rating [3, 14] | Pigweed plant response rating [3, 15] | Bermudagrass plant response rating [4, 18] | Plant response rating, Lambsquarters ([9]; 250 g ai/ha, scale 0-100) | Lambsquarters plant response rating ([9]; 500 g ai/ha)
20: Plant response rating, Bermudagrass [4, 19] | Cocklebur plant response rating ([5]; 500 g ai/ha) | Plant response rating, Cupgrass, Woolly ([6]; 250 g ai/ha, scale 0-100) | Plant response rating, Goosegrass ([7]; 62 g ai/ha, scale 0 to 100)
55: Foxtail, Giant plant response rating [2, 15] | Plant response rating, Morningglory [10, 16]
95: Plant response rating, Bermudagrass ([4]; 250 g ai/ha, scale 0-100) | Goosegrass plant response rating ([7]; 500 g ai/ha) | Kochia plant response rating ([8]; 500 g ai/ha)
10: Plant response rating, Cocklebur ([5]; 250 g ai/ha, scale 0-100) | Plant response rating, Cupgrass, Woolly [6, 16]

CCc1nn(C(C)(C)C)nc1C(=O)Nc1cccc(C(=O)NC2CC2)c1 [Compound 417]
20: Plant response rating (0 = no effect, 100 = complete control), Cupgrass, Woolly ([6]; 125 g ai/ha) | Plant response rating (0 = no effect, 100 = complete control), Morningglory ([10]; 125 g ai/ha)
65: Barnyardgrass plant response rating [1, 11] | Plant response rating, Cupgrass, Woolly ([6]; 250 g ai/ha, scale 0-100)
75: Foxtail, Giant plant response rating [2, 11]
60: Barnyardgrass plant response rating [1, 15]
85: Barnyardgrass plant response rating [1, 14] | Plant response rating, Foxtail, Giant [2, 12] | Plant response rating, Cupgrass, Woolly [6, 20] | Plant response rating (0 = no effect, 100 = complete control), Kochia ([8]; 125 g ai/ha)
80: Plant response rating, Barnyardgrass [1, 12]
0: Plant response rating, Cocklebur ([5]; 62 g ai/ha, scale 0 to 100) | Plant response rating (0 = no effect, 100 = complete control), Cocklebur ([5]; 125 g ai/ha) | Plant response rating, Cocklebur ([5]; 250 g ai/ha, scale 0-100) | Plant response rating, Cocklebur [5, 20] | Plant response rating, Cupgrass, Woolly ([6]; 62 g ai/ha, scale 0 to 100) | Plant response rating, Kochia ([8]; 62 g ai/ha, scale 0 to 100) | Plant response rating, Morningglory ([10]; 62 g ai/ha, scale 0 to 100)
100: Foxtail, Giant plant response rating [2, 14] | Pigweed plant response rating [3, 11] | Plant response rating, Pigweed [3, 12] | Pigweed plant response rating [3, 14] | Plant response rating, Bermudagrass [4, 19] | Plant response rating (0 = no effect, 100 = complete control), Bermudagrass ([4]; 125 g ai/ha) | Plant response rating, Bermudagrass ([4]; 250 g ai/ha, scale 0-100) | Plant response rating, Bermudagrass [4, 20] | Plant response rating (0 = no effect, 100 = complete control), Goosegrass ([7]; 125 g ai/ha) | Plant response rating, Goosegrass ([7]; 250 g ai/ha, scale 0-100) | Plant response rating, Goosegrass [7, 20] | Plant response rating, Kochia ([8]; 250 g ai/ha, scale 0-100) | Plant response rating, Kochia [8, 20] | Plant response rating (0 = no effect, 100 = complete control), Lambsquarters ([9]; 125 g ai/ha) | Plant response rating, Lambsquarters ([9]; 250 g ai/ha, scale 0-100) | Plant response rating, Lambsquarters [9, 20]
90: Foxtail, Giant plant response rating [2, 15]
95: Pigweed plant response rating [3, 15] | Plant response rating, Goosegrass ([7]; 62 g ai/ha, scale 0 to 100) | Plant response rating, Lambsquarters ([9]; 62 g ai/ha, scale 0 to 100) | Plant response rating, Morningglory [10, 20]
